Data on three compounds can be found in US12275731B2, “Azaindole inhibitors of wild-type and mutant forms of LRRK2” (DANA-FARBER CANCER INSTITUTE, INC., priority 2018, dated 2025).

What all share (assay): KinomeScan profiling
What all share (type): binding

The target of experiment [1] is T1, ABL1(F317I)-phoshorylated (Homo sapiens, UniProt P00519, F317I).
T1 construct: purchased KinomeScan®
The settings on record: read-out: % control. An outline of the steps:
(§1)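 First, compounds in DMSO are added at 1 μM to each of 468 kinase assays. Next, RLU signals are normalised between positive control (0%) and DMSO (100%). Finally, kinases under 35% are flagged active.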

Experiment [2] addresses T2, TAOK1 (Homo sapiens, UniProt Q7L7X3).
T2 construct: purchased KinomeScan® (panel service)
T2 sequence (Q7L7X3 1-1001): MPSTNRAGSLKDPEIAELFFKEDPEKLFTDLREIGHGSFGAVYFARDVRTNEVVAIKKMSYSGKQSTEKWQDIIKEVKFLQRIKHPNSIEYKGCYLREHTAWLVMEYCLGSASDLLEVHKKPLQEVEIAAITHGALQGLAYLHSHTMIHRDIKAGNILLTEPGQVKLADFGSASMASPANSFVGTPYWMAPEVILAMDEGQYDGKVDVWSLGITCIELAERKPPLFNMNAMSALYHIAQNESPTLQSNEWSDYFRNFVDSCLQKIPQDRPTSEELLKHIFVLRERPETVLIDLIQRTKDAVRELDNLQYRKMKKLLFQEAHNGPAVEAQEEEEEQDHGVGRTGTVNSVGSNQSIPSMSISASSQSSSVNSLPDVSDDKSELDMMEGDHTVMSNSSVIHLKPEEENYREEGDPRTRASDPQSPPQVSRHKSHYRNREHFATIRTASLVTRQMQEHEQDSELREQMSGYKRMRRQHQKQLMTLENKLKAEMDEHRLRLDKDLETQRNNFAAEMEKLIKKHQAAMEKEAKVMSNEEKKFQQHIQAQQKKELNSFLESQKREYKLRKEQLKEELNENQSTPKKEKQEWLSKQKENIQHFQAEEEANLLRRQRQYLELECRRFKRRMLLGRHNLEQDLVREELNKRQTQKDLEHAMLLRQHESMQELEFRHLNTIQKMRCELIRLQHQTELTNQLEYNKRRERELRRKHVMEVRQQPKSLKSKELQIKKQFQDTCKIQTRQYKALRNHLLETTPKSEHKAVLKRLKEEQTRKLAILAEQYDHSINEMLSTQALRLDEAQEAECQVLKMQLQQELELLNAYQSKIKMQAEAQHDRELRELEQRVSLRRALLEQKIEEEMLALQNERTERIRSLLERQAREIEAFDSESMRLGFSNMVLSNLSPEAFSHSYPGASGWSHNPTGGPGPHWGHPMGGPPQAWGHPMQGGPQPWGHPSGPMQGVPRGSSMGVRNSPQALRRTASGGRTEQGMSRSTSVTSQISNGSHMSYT
The settings on record: TAOK1, 1 μM; read-out: % control. An outline of the steps: as §1

Experiment [3] has as its target T3, CTK (Homo sapiens, UniProt P42679).
T3 sequence (P42679 1-507): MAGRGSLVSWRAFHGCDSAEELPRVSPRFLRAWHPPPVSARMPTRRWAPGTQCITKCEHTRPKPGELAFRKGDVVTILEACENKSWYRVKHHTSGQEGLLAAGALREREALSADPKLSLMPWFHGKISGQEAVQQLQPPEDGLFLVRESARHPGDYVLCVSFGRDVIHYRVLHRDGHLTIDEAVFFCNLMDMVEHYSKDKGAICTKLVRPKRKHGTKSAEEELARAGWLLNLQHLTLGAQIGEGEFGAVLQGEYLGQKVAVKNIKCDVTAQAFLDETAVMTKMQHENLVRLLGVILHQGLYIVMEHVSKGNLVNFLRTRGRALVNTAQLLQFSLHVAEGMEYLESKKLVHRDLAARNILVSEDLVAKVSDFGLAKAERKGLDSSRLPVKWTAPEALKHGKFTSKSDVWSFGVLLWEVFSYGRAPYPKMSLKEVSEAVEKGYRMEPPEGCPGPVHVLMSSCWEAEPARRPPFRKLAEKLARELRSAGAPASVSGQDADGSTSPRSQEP
The settings on record: read-out: % control. In a few lines:
as §1

Experiment [4] addresses T4, ACVR2B (Homo sapiens, UniProt Q13705).
T4 construct: purchased KinomeScan®
The following applies: read-out: % control. In a few lines:
as §1

In experiment [5] the target is ROCK1 (Homo sapiens, UniProt Q13464). The following applies: ROCK1, 1 μM; read-out: % control. In a few lines:
as §1

T1 sequence (P00519 whole entry F317I): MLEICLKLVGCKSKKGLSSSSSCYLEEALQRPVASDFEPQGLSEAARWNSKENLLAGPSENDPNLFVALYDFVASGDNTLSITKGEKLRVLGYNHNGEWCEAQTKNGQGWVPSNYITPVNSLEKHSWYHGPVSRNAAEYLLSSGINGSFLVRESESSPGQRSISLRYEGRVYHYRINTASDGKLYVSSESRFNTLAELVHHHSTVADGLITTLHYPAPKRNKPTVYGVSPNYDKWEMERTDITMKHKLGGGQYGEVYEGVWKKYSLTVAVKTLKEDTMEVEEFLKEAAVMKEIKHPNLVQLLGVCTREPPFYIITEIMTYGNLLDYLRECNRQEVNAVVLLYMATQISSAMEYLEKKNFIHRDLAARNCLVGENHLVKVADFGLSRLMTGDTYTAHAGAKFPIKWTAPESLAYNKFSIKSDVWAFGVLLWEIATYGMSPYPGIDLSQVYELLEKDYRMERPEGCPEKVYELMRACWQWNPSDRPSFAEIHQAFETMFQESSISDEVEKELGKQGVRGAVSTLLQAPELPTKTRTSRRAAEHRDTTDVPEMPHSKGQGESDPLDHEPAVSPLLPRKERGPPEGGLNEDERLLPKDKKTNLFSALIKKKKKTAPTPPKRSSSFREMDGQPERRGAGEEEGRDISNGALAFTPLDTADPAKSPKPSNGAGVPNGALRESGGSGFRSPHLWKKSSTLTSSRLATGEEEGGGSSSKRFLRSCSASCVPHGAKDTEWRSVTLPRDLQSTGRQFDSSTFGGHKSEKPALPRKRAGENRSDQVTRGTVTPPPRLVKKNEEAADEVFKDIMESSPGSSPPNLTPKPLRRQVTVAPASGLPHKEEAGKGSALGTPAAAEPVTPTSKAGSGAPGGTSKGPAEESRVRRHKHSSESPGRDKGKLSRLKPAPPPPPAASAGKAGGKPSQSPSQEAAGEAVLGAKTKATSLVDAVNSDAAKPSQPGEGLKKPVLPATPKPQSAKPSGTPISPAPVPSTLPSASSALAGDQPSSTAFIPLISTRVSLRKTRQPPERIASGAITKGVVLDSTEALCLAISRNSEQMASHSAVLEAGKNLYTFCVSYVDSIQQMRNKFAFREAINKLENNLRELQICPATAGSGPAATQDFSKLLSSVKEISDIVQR
T4 sequence (Q13705 19-512): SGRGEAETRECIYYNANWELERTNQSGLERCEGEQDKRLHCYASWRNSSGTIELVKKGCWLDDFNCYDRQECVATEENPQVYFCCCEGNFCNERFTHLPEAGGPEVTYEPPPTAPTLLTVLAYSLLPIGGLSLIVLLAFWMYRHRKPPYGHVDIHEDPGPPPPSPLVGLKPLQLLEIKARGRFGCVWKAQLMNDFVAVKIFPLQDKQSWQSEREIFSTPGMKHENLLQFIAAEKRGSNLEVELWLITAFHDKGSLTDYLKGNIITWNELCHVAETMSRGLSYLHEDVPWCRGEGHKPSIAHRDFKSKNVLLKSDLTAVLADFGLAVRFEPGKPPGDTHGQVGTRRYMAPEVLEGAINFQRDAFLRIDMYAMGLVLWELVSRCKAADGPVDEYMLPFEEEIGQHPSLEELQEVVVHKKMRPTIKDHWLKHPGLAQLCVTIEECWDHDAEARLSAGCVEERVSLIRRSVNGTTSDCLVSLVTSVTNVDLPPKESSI
Chain of ROCK1 (Q13464 whole entry): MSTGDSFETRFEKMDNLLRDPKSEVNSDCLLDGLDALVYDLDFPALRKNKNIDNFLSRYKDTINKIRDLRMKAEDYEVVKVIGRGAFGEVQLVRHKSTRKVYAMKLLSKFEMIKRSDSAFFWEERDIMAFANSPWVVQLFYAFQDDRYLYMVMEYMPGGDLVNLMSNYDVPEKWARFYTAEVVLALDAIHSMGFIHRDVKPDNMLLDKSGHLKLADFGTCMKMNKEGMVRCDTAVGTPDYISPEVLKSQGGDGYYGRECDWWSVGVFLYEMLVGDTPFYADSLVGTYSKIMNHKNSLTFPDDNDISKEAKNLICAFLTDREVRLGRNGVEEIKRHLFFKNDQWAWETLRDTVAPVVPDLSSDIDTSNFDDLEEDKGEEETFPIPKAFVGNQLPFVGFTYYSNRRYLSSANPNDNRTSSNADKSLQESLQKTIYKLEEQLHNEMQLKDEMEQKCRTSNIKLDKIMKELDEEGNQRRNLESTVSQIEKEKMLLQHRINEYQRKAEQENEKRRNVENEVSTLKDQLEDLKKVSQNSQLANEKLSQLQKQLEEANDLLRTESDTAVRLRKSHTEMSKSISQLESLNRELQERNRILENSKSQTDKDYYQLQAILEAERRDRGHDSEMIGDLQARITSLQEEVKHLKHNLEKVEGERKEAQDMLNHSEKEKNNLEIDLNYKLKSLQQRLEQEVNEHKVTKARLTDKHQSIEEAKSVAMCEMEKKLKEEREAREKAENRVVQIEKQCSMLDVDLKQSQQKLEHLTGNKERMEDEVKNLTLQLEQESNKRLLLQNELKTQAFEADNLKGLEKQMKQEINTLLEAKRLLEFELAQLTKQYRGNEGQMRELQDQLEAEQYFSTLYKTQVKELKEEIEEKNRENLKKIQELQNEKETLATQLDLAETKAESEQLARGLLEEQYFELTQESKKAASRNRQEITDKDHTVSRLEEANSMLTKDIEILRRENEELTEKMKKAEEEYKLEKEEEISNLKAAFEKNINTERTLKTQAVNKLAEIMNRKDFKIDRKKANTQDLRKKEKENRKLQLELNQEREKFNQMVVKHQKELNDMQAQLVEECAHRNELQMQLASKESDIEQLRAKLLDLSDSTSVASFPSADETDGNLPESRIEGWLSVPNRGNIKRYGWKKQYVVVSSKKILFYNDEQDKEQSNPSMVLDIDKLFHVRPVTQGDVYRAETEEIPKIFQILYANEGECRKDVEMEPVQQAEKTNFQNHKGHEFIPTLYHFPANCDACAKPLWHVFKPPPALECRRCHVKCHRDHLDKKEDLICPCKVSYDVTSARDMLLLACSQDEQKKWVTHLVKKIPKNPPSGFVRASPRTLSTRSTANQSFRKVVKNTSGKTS

Consider `CNc1c(-c2ccc(C(=O)N3CCC(N4CCOCC4)CC3)cc2)cnc2[nH]cc(Cl)c12` [Compound 96, (4-(3-chloro-4-(methylamino)-1H-pyrrolo[2,3-b]pyridin-5-yl)phenyl)(4-morpholinopiperidin-1-yl)methanone], for which the remaining binding at 1 µM in experiment [1] was found to be 100%; in experiment [2], 96%; in experiment [3] it was 100%; in experiment [4], 91%; in experiment [5], 4.7%.
As for `O=C(c1ccc(-c2cnc3[nH]cc(Cl)c3c2NC2CCCC2)cc1)N1CCC(N2CCOCC2)CC1` [Compound 101, (4-(3-chloro-4-(cyclopentylamino)-1H-pyrrolo[2,3-b]pyridin-5-yl)phenyl)(4-morpholinopiperidin-1-yl)methanone], the remaining binding at 1 µM in experiment [1] is 10%; in experiment [2], 99%; in experiment [3], 95%; in experiment [4], 100%; in experiment [5] it was 63%.
As for `CNc1c(-c2cnn([C@H]3CCN(C(C)=O)C[C@@H]3F)c2)cnc2[nH]cc(Cl)c12` [Compound 77, 1-((3S,4S)-4-(4-(3-chloro-4-(methylamino)-1H-pyrrolo[2,3-b]pyridin-5-yl)-1H-pyrazol-1-yl)-3-fluoropiperidin-1-yl)ethan-1-one], the remaining binding at 1 µM was 81% in experiment [1]; 100% in experiment [2]; 97% in experiment [3]; 77% in experiment [4]; 20% in experiment [5].
